Columns and labels:
GTF-B = biological target: T1, GTF-B (Streptococcus mutans, UniProt P08987); test: pNPG hydrolysis kinetics with recombinant enzyme (Vmax reduced […]); gel zymography at […] ([…] inhibition); assay type: biochemical
T1 construct: gene gtfB; recombinant GTF-B

GTF-C = biological target: T2, GTF-C (Streptococcus mutans, UniProt P13470); test: dynamic light scattering glucan polymerization assay with recombinant GTF-C at […] sucrose; also pNPG hydrolysis kinetics and gel zymography; assay type: biochemical
T2 construct: gene gtfC; recombinant GTF-C
T2 sequence (P13470 35-1455): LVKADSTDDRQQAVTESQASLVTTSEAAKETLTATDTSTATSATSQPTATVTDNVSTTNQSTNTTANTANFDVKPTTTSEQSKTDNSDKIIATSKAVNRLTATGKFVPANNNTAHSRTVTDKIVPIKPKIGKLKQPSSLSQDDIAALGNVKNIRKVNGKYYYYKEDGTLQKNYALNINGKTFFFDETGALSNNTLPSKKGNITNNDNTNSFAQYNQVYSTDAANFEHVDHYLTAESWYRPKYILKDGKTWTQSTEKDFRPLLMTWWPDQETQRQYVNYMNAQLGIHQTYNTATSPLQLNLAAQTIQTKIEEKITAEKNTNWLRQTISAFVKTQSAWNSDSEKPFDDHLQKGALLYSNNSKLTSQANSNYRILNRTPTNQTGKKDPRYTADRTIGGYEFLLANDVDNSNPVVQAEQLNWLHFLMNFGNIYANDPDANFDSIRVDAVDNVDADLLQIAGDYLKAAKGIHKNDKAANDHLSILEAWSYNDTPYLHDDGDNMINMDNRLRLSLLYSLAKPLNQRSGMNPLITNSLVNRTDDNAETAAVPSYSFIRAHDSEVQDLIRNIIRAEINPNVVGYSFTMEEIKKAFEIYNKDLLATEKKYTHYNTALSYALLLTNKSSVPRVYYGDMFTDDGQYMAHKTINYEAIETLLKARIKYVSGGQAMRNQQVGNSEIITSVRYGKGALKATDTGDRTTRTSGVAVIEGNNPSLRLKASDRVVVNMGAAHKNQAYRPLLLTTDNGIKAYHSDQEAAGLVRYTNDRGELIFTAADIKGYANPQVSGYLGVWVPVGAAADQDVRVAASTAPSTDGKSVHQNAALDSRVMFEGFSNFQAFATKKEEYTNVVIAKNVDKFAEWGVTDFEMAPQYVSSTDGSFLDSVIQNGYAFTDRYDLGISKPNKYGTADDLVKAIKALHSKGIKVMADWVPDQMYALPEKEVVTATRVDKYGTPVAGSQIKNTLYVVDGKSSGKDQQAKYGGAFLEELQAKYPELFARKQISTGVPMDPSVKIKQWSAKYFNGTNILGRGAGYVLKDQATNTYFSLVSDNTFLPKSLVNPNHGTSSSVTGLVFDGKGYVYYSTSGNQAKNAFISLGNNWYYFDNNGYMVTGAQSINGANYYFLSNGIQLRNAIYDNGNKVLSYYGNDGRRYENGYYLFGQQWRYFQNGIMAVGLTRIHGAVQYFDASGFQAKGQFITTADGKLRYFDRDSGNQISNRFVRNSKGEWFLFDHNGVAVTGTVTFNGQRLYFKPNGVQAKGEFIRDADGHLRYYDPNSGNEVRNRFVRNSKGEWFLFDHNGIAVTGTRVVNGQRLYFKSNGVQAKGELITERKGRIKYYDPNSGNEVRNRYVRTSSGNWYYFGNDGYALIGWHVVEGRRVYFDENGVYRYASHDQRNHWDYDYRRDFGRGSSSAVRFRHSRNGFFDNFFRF

T1 sequence (P08987 35-1476): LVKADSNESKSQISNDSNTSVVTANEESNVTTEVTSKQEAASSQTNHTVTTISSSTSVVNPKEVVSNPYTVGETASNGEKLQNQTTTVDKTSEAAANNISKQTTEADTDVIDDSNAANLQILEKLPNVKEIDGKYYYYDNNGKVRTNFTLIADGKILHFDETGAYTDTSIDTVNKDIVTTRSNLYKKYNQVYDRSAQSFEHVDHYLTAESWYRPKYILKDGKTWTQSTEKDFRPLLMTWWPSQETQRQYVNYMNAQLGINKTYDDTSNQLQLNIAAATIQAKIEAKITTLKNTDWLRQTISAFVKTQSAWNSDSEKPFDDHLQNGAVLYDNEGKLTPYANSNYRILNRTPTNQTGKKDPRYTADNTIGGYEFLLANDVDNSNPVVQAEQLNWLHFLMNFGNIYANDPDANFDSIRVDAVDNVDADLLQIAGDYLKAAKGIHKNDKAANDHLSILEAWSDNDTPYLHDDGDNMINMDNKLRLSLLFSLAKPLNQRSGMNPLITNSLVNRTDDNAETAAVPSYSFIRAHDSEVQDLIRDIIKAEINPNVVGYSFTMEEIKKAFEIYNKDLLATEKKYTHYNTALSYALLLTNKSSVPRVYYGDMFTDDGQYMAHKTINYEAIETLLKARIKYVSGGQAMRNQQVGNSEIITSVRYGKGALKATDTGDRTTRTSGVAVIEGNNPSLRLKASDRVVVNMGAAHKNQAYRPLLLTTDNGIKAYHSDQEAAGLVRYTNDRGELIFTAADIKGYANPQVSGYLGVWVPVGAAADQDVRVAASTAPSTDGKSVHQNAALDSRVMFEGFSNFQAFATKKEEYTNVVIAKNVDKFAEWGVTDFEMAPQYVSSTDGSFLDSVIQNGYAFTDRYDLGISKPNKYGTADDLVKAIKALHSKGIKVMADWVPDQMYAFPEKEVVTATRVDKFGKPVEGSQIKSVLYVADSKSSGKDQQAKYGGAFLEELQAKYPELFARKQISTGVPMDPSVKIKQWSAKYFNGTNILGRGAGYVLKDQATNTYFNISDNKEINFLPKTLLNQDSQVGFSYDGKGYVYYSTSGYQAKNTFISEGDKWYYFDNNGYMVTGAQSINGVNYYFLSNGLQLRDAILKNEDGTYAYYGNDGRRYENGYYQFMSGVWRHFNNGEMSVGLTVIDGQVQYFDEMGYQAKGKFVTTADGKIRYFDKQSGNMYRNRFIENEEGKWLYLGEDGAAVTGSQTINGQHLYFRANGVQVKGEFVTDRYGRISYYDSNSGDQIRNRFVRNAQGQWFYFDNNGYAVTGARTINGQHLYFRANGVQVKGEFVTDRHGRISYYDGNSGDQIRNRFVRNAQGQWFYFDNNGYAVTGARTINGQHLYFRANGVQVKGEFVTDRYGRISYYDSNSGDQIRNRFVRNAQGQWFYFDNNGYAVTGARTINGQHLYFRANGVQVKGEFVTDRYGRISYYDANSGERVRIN

## NC(=O)c1cc(OCCOCCOCCOCCO)ccc1NC(=O)c1cc2cc([N+](=O)[O-])ccc2s1 [G43-C3-TEG]
GTF-B
  % reduction of Vmax: 39 % reduction of Vmax
GTF-C
  IC50: 23.5 µM

From paper PMC10363545, “The potential use of glycosyl-transferase inhibitors for targeted reduction of S. mutans biofilms in dental materials” (Scientific Reports, 2023)
